# In patent US20020142993A1, “Pharmaceutically acceptable salts of bicyclic compounds” (DR. REDDY'S LABORATORIES LTD., priority 2000, published 2002):
# Counter-ions that a name gives are not always drawn.
# Experiments:
# Swiss albino mice = experiment: Plasma triglyceride and total cholesterol lowering activity in Swiss albino mice and guinea pigs; format: in vivo, mouse; details: dose 3 mg/kg, oral, 6 days
# Description: c) Plasma Triglyceride and Total Cholesterol Lowering Activity in Swiss Albino Mice and Guinea Pigs
# Male Swiss albino mice (SAM) and male Guinea pigs were obtained from NIN and housed in DRF animal house. All these animals were maintained under 12 hour light and dark cycle at 25±1° C. Animals were given standard laboratory chow (NIN, Hyderabad, India) and water, ad libitum. SAM of 20-25 g body weight range and Guinea pigs of 500-700 g body weight range were used (Oliver, P., Plancke, M. O., Marzin, D., Clavey, V., Sauzieres, J and Fruchart, J. C. Effects of fenofibrate, gemfibrozil and nicotinic acid on plasma lipoprotein levels in normal and hyperlipidemic mice. Atherosclerosis. 1988. 70: 107-114).
# The test compounds were administered orally to Swiss albino mice at 0.3 to 30 mg/kg/day dose for 6 days. Control mice were treated with vehicle (0.25% Carboxymethylcellulose; dose 10 ml/kg). The test compounds were administered orally to Guinea pigs at 0.3 to 30 mg/kg/day dose for 6 days. Control animals were treated with vehicle (0.25% Carboxymethylcellulose; dose 5 ml/kg).
# The blood samples were collected in fed state 1 hour after drug administration on 0 and 6 day of treatment. The blood was collected from the retro-orbital sinus through heparinised capillary in EDTA containing tubes. After centrifugation, plasma sample was separated for triglyceride and total cholesterol (Wieland, O. Methods of Enzymatic analysis. Bergermeyer, H. O., Ed., 1963. 211-214; Trinder, P. Ann. Clin. Biochem. 1969. 6: 24-27). Measurement of plasma triglyceride, total cholesterol and HDL were done using commercial kits (Dr. Reddy's Diagnostic Division, Hyderabad, India).
# (§1) 1. Percent reduction in Blood sugar/triglycerides/total cholesterol were calculated according to the formula: [formula]
# hPPARα = target: T1, hPPARα (Homo sapiens, UniProt Q07869); experiment: Determination of hPPARα activity (GAL4-LBD luciferase reporter in HEK-293 cells); format: cell-based; details: 50 μM compound, transfected HEK-293 cells
# T1 construct: expressed in transfected cells; host or cells: HEK-293
# T1 sequence (Q07869 239-466 limits assumed): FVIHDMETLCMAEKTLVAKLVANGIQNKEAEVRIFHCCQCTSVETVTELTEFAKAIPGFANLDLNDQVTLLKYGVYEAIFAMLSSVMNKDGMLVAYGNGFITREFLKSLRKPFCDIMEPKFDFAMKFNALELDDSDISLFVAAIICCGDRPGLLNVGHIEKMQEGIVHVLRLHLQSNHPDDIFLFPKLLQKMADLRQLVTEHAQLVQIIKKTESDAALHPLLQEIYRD
# Description: a) Determination of hPPARα Activity
# Ligand binding domain of hPPARα was fused to DNA binding domain of Yeast transcription factor GAL4 in eucaryotic expression vector. Using superfect (Qiagen, Germany) as transfecting reagent HEK-293 cells were transfected with this plasmid and a reporter plasmid harboring the luciferase gene driven by a GAL4 specific promoter. Compound was added at different concentrations after 42 hrs of transfection and incubated overnight. Luciferase activity as a function of compound binding/activation capacity of PPARα was measured using Packard Luclite kit (Packard, USA) in Top Count (Ivan Sadowski, Brendan Bell, Peter Broag and Melvyn Hollis. Gene. 1992. 118: 137 -141; Superfect Transfection Reagent Handbook. February 1997, Qiagen, Germany).
# [1] = Single dose oral pharmacokinetic studies; format: in vivo; details: male Wistar rats, suspension in 0.25% sodium CMC
# Description: Single Dose Oral Pharmacokinetic Studies
# Male Wistar rats (220-250 gm) were used in the experiments. The animals were maintained under standard laboratory conditions and had free access to feed and water ad libitum. Before experimentation animals were fasted overnight (˜15 h) during which they had free access to water ad libitum.
# An amount equivalent to 30 mg of drug was weighed accurately and transferred into a clean mortar and triturated to obtain a fine powder. To this 0.5 ml of 0.25% sodium carboxy methyl cellulose (sodium CMC) was added to obtain a paste. To the obtained paste remaining 2.5 ml of sodium CMC was added to make up the volume to 3 ml. Based on the animal weight appropriate volume (body weight×3) of the prepared suspension was administered through oral gavage.
# After dosing, at designated time points (0.5, 1, 2, 3, 5, 8, 12 and 24 h) 200 μl of blood was collected from retro orbital plexus into 0.5 ml eppendorff tubes containing EDTA (10 μl of 200 mg/ml solution in Milli Q water). Blood was centrifuged at 12,800 rpm for 5 min and obtained plasma and stored at −20° C. till further analysis.
# 100 μl plasma was transferred into a clean and dry centrifuge tube. To this internal standard (10 μl of 100 μg/ml) was added and extracted with 2 ml of extraction recovery solvent. The contents were vortexed for 2 min, followed by centrifugation for 10 min at 2800 rpm. Clear organic layer (2×0.75 ml) was separated and dried under nitrogen gas at 50° C. The residue was reconstituted with 150 μl of mobile phase and vortexed for 20 sec, from this 50 μl was injected onto HPLC column.
# Pharmacokinetic parameters were calculated by non-compartmental model analysis. The peak plasma concentration (Cmax) and the corresponding time (Tmax) were directly obtained from the raw data. The area under the plasma concentration versus time curve up to the last quantifiable time point, AUC(0-t) was obtained by the linear and log-linear trapezoidal summation. The AUC(0-t) extrapolated to infinity (i.e., AUC(0-∞)) by adding the quotient of Clast/Kel, where Clast represents the last measurable time concentration and Kel represents the apparent terminal rate constant. Kel was calculated by the linear regression of the log-transformed concentrations of the drug in the terminal phase. The half-life of the terminal elimination phase was obtained using the relationship
# C57BL/KsJ-db/db mice = experiment: Blood sugar and triglyceride lowering in db/db mice; format: in vivo, mouse; details: dose 0.03 mg/kg, oral gavage daily for 6 days
# Text: Mutation in colonies of laboratory animals and different sensitivities to dietary regimens have made the development of animal models with non-insulin dependent diabetes and hyperlipidemia associated with obesity and insulin resistance possible. Genetic models such as db/db and ob/ob (Diabetes, (1982)31(1): 1-6) mice and zucker fa/fa rats have been developed by the various laboratories for understanding the pathophysiology of disease and testing the efficacy of new antidiabetic compounds (Diabetes, (1983)32: 830-838; Annu. Rep. Sankyo Res. Lab. (1994).46:1-57). […]
# The random blood sugar and triglyceride levels were measured by collecting blood (100 μl) through orbital sinus, using heparinised capillary in tubes containing EDTA which was centrifuged to obtain plasma. The plasma glucose and triglyceride levels were measured spectrometrically, by glucose oxidase and glycerol 3 PO4 oxidase/peroxidase enzyme (Dr. Reddy's Lab. Diagnostic Division Kits, Hyderabad, India) methods respectively.
# The blood sugar and triglycerides lowering activities of the test compound was calculated according to the formula.
# as §1
# hPPARγ1 = target: T2, hPPARγ1 (Homo sapiens, UniProt P37231); experiment: Determination of hPPARγ activity (GAL4-LBD luciferase reporter in HEK-293 cells); format: cell-based; details: 1 μM compound, transfected HEK-293 cells
# T2 construct: expressed in transfected cells; host or cells: HEK-293
# T2 sequence (P37231 238-503 limits assumed): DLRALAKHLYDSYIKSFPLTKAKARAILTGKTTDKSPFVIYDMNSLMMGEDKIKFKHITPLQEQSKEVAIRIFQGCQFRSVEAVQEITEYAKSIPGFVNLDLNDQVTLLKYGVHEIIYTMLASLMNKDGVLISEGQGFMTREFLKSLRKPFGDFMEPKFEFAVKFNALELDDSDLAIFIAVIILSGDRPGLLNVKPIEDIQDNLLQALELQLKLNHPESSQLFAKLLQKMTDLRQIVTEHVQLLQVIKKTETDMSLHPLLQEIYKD
# Description: b) Determination of hPPARγ Activity
# Ligand binding domain of hPPARγ1 was fused to DNA binding domain of Yeast transcription factor GAL4 in eucaryotic expression vector. Using lipofectamine (Gibco BRL, USA) as transfecting reagent HEK-293 cells were transfected with this plasmid and a reporter plasmid harboring the luciferase gene driven by a GAL4 specific promoter. Compound was added at 1 μM concentration after 48 hrs of transfection and incubated overnight. Luciferase activity as a function of drug binding/activation capacity of PPARγ1 was measured using Packard Luclite kit (Packard, USA) in Packard Top Count (Ivan Sadowski, Brendan Bell, Peter Broag and Melvyn Hollis. Gene. 1992. 118: 137-141; Guide to Eukaryotic Transfections with Cationic Lipid Reagents. Life Technologies, GIBCO BRL, USA).
SMILES,melting point [°C],Triglyceride Lowering (%) (Swiss albino mice),PPARα (luciferase activity) (hPPARα),PPARγ (luciferase activity) (hPPARγ1),further results
CCO[C@@H](Cc1ccc(OCCN2CCSc3ccccc32)cc1)C(=O)O (as salt: salt) [Example 1],126 to 128,–,–,–,–
"CCO[C@@H](Cc1ccc(OCCN2CCSc3ccccc32)cc1)C(=O)O (as salt: salt) [Example 2, Metformin salt of (−)-3-[4-[2-(3,4-dihydro-2H-1,4-benzothiazin-4-yl)ethoxy]phenyl]-2-ethoxy propanoic acid]",155 to 158,–,–,–,–
"CCO[C@@H](Cc1ccc(OCCN2CCSc3ccccc32)cc1)C(=O)O (as salt: salt) [Example 3, Dicyclohexylamine salt of (−)-3-[4-[2-(3,4-dihydro-2H-1,4-benzothiazin-4-yl)ethoxy]phenyl]-2-ethoxy propanoic acid]",110,–,–,–,–
"CCO[C@@H](Cc1ccc(OCCN2CCSc3ccccc32)cc1)C(=O)O (as salt: salt) [Example 5, -Lysine salt of (−)-3-[4-[2-(3,4-dihydro-2H-1,4-benzothiazin-4-yl)ethoxy]phenyl]-2-ethoxy propanoic acid]",142 to 144,–,–,–,–
"CCOC(Cc1ccc(OCCN2CCSc3ccccc32)cc1)C(=O)O (stereo in doubt) [Example 4, (R)-(+)-Methyl benzylamine salt of (−)-3-[4-[2-(3,4-dihydro-2H-1,4-benzothiazin-4-yl)ethoxy]phenyl]-2-ethoxy propanoic acid]",–,55,–,–,–
CCO[C@@H](Cc1ccc(OCCN2CCSc3ccccc32)cc1)C(=O)O [Example 1],–,66,–,–,–
"CCO[C@@H](Cc1ccc(OCCN2CCSc3ccccc32)cc1)C(=O)O [Example 2, Metformin salt of (−)-3-[4-[2-(3,4-dihydro-2H-1,4-benzothiazin-4-yl)ethoxy]phenyl]-2-ethoxy propanoic acid]",–,55,3.0,9.8,"Ke1 [1]: 0.17 ± 0.03 h⁻¹; AUC(0-inf) ([1]; rat, plasma, 30 mg/kg): 320 ± 36.2 µg·h/mL; AUC(0-t) ([1]; rat, plasma, 30 mg/kg): 315 ± 34.7 µg·h/mL; Cmax ([1]; rat, plasma, 30 mg/kg): 77.2 ± 24.1 µg/mL; Tmax ([1]; rat, plasma, 30 mg/kg): 0.63 ± 0.25 h; half-life ([1]; rat, plasma, 30 mg/kg): 4.25 ± 0.86 h; Reduction in Blood Glucose Level (%) (C57BL/KsJ-db/db mice): 56%; Triglyceride Lowering (%) (C57BL/KsJ-db/db mice): 59%"
"CCO[C@@H](Cc1ccc(OCCN2CCSc3ccccc32)cc1)C(=O)O [Example 3, Dicyclohexylamine salt of (−)-3-[4-[2-(3,4-dihydro-2H-1,4-benzothiazin-4-yl)ethoxy]phenyl]-2-ethoxy propanoic acid]",–,–,5.2,19,–
"CCO[C@@H](Cc1ccc(OCCN2CCSc3ccccc32)cc1)C(=O)O [Example 5, -Lysine salt of (−)-3-[4-[2-(3,4-dihydro-2H-1,4-benzothiazin-4-yl)ethoxy]phenyl]-2-ethoxy propanoic acid]",–,46,3.5,7.6,–
"CCO[C@@H](Cc1ccc(OCCN2CCSc3ccccc32)cc1)C(=O)O [Example 6, Amino guanidine hydrogen carbonate salt of (−)-3-[4-[2-(3,4-dihydro-2H-1,4-benzothiazin-4-yl)ethoxy]phenyl]-2-ethoxy propanoic acid]",–,–,4.7,21,–
